Active and inactive are the calls of the source. The rule behind the calls is not given here.
Key:
[1] = system: A549; test: Induction of cell cycle arrest in human A549 cells assessed as M stage arrest by measuring upregulation of p-MPM-2 expression at 0.3 uM incubated for 24 hrs by Western blot analysis; format: functional, cell-based
[2] = biological target: Cytochrome P450 2C9 (Homo sapiens, UniProt P11712); test: Inhibition of CYP2C9 in human liver microsomes using diclofenac as substrate by LC-MS/MS analysis; format: ADME
Sequence of Cytochrome P450 2C9 (P11712 whole entry): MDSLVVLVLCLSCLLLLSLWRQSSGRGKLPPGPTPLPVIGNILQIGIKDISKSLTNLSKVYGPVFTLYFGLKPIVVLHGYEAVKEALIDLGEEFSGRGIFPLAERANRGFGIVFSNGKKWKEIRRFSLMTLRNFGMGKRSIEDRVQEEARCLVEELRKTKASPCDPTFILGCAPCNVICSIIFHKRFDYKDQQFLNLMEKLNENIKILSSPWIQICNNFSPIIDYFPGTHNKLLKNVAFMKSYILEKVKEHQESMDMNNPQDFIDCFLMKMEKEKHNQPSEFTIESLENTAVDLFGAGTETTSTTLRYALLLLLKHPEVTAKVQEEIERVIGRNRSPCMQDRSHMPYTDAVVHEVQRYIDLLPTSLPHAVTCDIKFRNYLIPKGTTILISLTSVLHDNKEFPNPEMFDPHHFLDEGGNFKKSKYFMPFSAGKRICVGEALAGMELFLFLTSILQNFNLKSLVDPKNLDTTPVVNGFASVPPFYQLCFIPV

[3] = system: A549; test: Induction of apoptosis in human A549 cells assessed as increase in PARP cleavage at 0.3 to 3 uM measured after 18 hrs by western blot analysis; format: functional, cell-based; settings: dose 0.3-3 µM
[4] = system: NCI-H1975; test: Antitumor activity against human NCI-H1975 cells xenografted in BALB/c mouse assessed as tumor growth inhibition at 50 mg/kg, po treated daily relative to control; settings: read-out: TGI
[5] = biological target: CYP2D6 (Homo sapiens, UniProt P10635); test: Inhibition of CYP2D6 in human liver microsomes using dextromethorphan as substrate at 50 uM by LC-MS/MS analysis; format: ADME; settings: probe dextromethorphan
Sequence of CYP2D6 (P10635 whole entry): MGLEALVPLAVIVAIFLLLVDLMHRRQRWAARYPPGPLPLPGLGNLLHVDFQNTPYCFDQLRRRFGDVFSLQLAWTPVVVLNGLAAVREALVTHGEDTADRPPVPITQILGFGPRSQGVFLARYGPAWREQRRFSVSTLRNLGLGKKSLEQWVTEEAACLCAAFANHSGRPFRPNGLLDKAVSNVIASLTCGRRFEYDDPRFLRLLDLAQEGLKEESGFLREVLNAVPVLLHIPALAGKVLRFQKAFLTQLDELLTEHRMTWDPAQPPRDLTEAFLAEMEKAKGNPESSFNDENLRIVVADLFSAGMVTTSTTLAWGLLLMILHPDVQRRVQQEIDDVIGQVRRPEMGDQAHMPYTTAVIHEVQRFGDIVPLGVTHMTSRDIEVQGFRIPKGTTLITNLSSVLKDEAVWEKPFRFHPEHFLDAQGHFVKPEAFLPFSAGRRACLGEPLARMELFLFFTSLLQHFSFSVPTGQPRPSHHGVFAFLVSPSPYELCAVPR

[6] = Metabolic stability in CD1 mouse hepatocytes assessed as half life by LC-MS/MS analysis; format: ADME, cell-based, Hepatocyte
[7] = biological target: T1, Cytochrome P450 2C8 (Homo sapiens, UniProt P10632); test: Inhibition of CYP2C8 in human liver microsomes using amodiaquine as substrate by LC-MS/MS analysis; format: ADME
T1 sequence (P10632 whole entry): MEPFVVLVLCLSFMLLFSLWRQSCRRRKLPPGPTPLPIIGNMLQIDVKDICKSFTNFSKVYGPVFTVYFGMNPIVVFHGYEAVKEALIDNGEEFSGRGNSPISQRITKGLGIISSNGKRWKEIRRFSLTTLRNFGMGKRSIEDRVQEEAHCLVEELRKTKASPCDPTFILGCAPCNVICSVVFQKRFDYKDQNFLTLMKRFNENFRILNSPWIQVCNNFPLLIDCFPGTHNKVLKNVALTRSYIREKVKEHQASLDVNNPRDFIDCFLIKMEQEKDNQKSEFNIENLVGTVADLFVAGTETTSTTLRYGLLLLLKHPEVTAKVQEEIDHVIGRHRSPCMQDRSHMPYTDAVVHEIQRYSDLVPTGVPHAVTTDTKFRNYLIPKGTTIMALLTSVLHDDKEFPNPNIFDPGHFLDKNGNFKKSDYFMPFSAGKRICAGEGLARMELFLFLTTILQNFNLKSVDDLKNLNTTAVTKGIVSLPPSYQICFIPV

[8] = system: A549; test: Induction of cell cycle arrest in human A549 cells assessed as upregulation of cyclinB1 protein expression at 0.3 uM incubated for 24 hrs by Western blot analysis; format: functional, cell-based
[9] = system: A549; test: Induction of EGFR degradation in human A549 cells assessed as reduction in eGFR expression at 3 uM by immunoblot analysis; format: functional, cell-based; settings: time hrs <=24, TDE = time-dependent effect
[10] = system: A549; test: Induction of apoptosis in human A549 cells assessed as increase in cleaved caspase 6 protein expression at 0.3 to 3 uM measured after 18 hrs by western blot analysis; format: functional, cell-based; settings: dose 0.3-3 µM
[11] = biological target: hERG (KCNH2) (Homo sapiens, UniProt Q12809); test: Inhibition of human ERG stably expressed in HEK293 cells at 10 uM measured after 60 mins by [3H]]Astemizole binding assay; format: cell-based; settings: HEK293 cells stably expressing hERG, probe [3H]astemizole
Sequence of hERG (KCNH2) (Q12809 whole entry): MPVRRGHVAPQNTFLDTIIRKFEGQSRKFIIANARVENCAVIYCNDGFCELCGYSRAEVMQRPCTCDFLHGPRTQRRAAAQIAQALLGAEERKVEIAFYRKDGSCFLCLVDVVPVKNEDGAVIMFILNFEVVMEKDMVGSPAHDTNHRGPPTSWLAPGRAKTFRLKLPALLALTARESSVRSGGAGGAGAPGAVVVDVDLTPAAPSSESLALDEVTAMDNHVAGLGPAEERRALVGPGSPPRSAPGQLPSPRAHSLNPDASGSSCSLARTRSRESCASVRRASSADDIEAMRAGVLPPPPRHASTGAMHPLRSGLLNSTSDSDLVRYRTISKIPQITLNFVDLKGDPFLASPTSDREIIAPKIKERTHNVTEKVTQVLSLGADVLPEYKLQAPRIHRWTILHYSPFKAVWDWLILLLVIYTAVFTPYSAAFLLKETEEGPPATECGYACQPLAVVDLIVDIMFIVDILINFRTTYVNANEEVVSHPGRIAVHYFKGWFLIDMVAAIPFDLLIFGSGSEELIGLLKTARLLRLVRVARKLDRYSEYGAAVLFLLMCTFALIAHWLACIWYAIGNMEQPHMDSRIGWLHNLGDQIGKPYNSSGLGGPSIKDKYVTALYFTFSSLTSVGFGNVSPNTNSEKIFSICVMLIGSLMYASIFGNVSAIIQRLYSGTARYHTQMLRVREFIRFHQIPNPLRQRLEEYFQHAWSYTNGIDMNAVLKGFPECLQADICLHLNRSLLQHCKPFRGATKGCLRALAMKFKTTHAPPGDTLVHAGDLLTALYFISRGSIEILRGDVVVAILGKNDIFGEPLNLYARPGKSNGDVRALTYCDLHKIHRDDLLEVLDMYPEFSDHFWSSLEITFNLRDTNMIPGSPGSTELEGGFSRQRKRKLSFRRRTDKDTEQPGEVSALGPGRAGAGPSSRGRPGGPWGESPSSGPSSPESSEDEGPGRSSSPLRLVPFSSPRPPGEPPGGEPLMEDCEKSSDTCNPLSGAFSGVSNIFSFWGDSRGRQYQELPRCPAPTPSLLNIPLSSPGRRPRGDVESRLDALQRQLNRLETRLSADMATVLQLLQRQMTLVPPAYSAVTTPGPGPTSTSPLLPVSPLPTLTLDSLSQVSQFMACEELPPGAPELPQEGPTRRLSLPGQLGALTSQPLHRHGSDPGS

[12] = system: A549; test: Induction of apoptosis in human A549 cells assessed as increase in cleaved caspase 7 protein expression at 0.3 to 3 uM measured after 18 hrs by western blot analysis; format: functional, cell-based; settings: dose 0.3-3 µM
[13] = biological target: T2, Heat shock protein HSP90 (Homo sapiens, UniProt P07900+P08238); test: Inhibition of HSP90 in human A549 cells assessed as downregulation of Src expression at 0.3 uM by immunoblot analysis; settings: time hrs <=24, TDE = time-dependent effect
[14] = Apparent permeability across apical to basolateral in human Caco2 cells by LC-MS/MS analysis; format: ADME, cell-based; settings: Caco-2, read-out: permeability
[15] = Metabolic stability in Beagle dog hepatocytes assessed as Intrinsic clearance by LC-MS/MS analysis; format: ADME, cell-based, Canis lupus familiaris, Hepatocyte
[16] = system: A549; test: Induction of cell cycle arrest in human A549 cells assessed as decrease in cdc25c expression at Ser216 at 0.3 uM incubated for 24 hrs by Western blot analysis; format: functional, cell-based
[17] = Hepatic clearance in Beagle dog by LC-MS/MS analysis; format: ADME, tissue-based, Canis lupus familiaris, Hepatocyte; settings: hepatocytes
[18] = system: 661W; test: Cytotoxicity against mouse 661W cells by MTT based vision related toxicity assay; format: cell-based
[19] = system: A549; test: Antimigratory activity against human A549 cells assessed as inhibition of migration at 0.1 to 3 uM incubated for 6 hrs by crystal violet staining based by Boyden chamber method; format: functional, cell-based; settings: dose 0.1-3 µM
[20] = biological target: Cytochrome P450 2C19 (Homo sapiens, UniProt P33261); test: Inhibition of CYP2C19 in human liver microsomes using S-mephenytoin as substrate by LC-MS/MS analysis; format: ADME
Sequence of Cytochrome P450 2C19 (P33261 whole entry): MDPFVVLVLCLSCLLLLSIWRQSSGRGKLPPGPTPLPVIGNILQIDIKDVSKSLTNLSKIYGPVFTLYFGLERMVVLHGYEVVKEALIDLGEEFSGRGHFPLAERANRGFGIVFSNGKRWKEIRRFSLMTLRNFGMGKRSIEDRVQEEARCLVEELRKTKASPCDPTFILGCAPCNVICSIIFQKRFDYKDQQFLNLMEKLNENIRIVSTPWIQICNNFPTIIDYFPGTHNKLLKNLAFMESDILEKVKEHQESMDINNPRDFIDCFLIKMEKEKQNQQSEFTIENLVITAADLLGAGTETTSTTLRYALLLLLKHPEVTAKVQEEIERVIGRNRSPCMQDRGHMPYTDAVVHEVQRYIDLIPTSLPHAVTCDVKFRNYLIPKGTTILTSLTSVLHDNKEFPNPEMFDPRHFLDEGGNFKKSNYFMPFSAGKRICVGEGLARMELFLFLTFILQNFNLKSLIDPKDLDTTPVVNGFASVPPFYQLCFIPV

[21] = Metabolic stability in Sprague-Dawley rat hepatocytes assessed as half life by LC-MS/MS analysis; format: ADME, cell-based, Hepatocyte
[22] = system: A549; test: Antitumor activity against human A549 cells xenografted in BALB/c mouse assessed as reduction in tumor growth inhibition at 50 mg/kg, po treated daily relative to control; settings: read-out: TGI
[23] = Clearance in Sprague-Dawley rat at 2 mg/kg, iv measured after 1 hrs by LC-MS/MS analysis; format: ADME, organism-based; settings: in vivo
[24] = AUC (0 to t) in Sprague-Dawley rat at 20 mg/kg, po measured after 1 hrs by LC-MS/MS analysis; format: ADME, organism-based; parameters: route oral, time 1 hrs, dose 20 mg/kg; settings: in vivo
[25] = biological target: T2, Heat shock protein HSP90; test: Inhibition of HSP90 in human A549 cells assessed as downregulation of Akt expression incubated for 24 hrs by immunoblot analysis; format: cell-based; settings: dose microM <=3, time 24.0 hrs
[26] = system: A549; test: Induction of EGFR degradation in human A549 cells assessed as reduction in eGFR expression measured after 24 hrs by immunoblot analysis; format: functional, cell-based; settings: dose microM <=3, time 24.0 hrs
[27] = AUC (0 to infinity) in Sprague-Dawley rat at 20 mg/kg, po measured after 1 hrs by LC-MS/MS analysis; format: ADME, organism-based; parameters: route oral, time 1 hrs, dose 20 mg/kg; settings: in vivo
[28] = system: A549; test: Induction of cell cycle arrest in human A549 cells assessed as increases in cdc2 expression at Thr161 at 0.3 uM incubated for 24 hrs by Western blot analysis; format: functional, cell-based
[29] = Hepatic clearance in human hepatocytes by LC-MS/MS analysis
[30] = Cmax in Sprague-Dawley rat at 2 mg/kg, iv measured after 1 hrs by LC-MS/MS analysis; format: ADME, organism-based; parameters: route intravenous, time 1 hrs, dose 2 mg/kg; settings: in vivo

**Q.** Which Activity [1] does the source give for `CCN(C(=O)c1cc(C(C)C)c(O)cc1O)c1cccnc1` here?
**A.** Active

**Q.** What about the IC50 [2] of the same compound?
**A.** 15 µM

**Q.** What about the Activity [3] of the same compound?
**A.** Active

**Q.** And the inhibition in vivo at 50 mg/kg [4]?
**A.** 34.3%

**Q.** And the inhibition at 50 µM [5]?
**A.** 84%

**Q.** And the half-life [6]?
**A.** 5.31 min

**Q.** What about the IC50 [7] of the same compound?
**A.** > 50 µM

**Q.** What about the Activity [8] of the same compound?
**A.** Active

**Q.** What about the Activity [9] of the same compound?
**A.** Tde

**Q.** And the Activity [10]?
**A.** Active

**Q.** And the inhibition at 1 h, 10 µM [11]?
**A.** -18%

**Q.** And the Activity [12]?
**A.** Active

**Q.** And the inhibition [13]?
**A.** Tde

**Q.** What about the Papp A→B [14] of the same compound?
**A.** 31.9 ×10⁻⁶ cm/s

**Q.** And the CLint [15]?
**A.** 119 mL/min/kg

**Q.** And the Activity [16]?
**A.** Active

**Q.** What about the CLhep predicted [17] of the same compound?
**A.** 25 mL/min/kg

**Q.** And the Activity [18]?
**A.** > 10 µM

**Q.** And the Activity [19]?
**A.** Active

**Q.** And the IC50 [20]?
**A.** 7.8 µM

**Q.** And the half-life [21]?
**A.** 11.2 min

**Q.** And the inhibition in vivo at 50 mg/kg [22]?
**A.** 46.9%

**Q.** What about the clearance [23] of the same compound?
**A.** 73.2 mL/min/kg

**Q.** What about the AUCt [24] of the same compound?
**A.** 737 ng·h/mL

**Q.** What about the inhibition [25] of the same compound?
**A.** Dose-Dependent Effect

**Q.** What about the Activity [26] of the same compound?
**A.** Dose-Dependent Effect

**Q.** What about the AUC [27] of the same compound?
**A.** 811 ng·h/mL

**Q.** And the Activity [28]?
**A.** Active

**Q.** And the CLhep predicted [29]?
**A.** 14.7 mL/min/kg

**Q.** And the Cmax [30]?
**A.** 1580 ng/mL
